# Reference: patent US11149047B2, “Aryl imidazoles for treatment of cancer” (Aptose Biosciences Inc., priority 2017, dated 2021)
# Entries after “also recorded” stand apart in the source; their conditions may differ.
# Legend:
# [1] = tested on: Raji cells; test: Cellular pharmacology: intracellular accumulation and efflux by LC-MS/MS; type: in vitro ADME, human
# Description: Cells exposed to COMPOUND I or Fe(COMPOUND I)3 were homogenized in acetonitrile containing 5 ng of a deuterated COMPOUND I standard. Samples were analyzed at the UCSD Molecular Mass Spectrometry Facility employing an Agilent 1260 liquid chromatograph (LC) system coupled with a Thermo LCQdeca mass spectrometer using positive ion mode electrospray ionization (ESI) as the ion source. The ESI ion source voltage was set at 5 kV, with sheath gas flow rate of 80 units, auxiliary gas flow rate of 20 units, and capillary temperature of 250° C., respectively. A Phenomenex Kinetex Biphenyl column (ID 2.1 mm×length 50 mm, particle size 2.6 μm) was utilized for LC separation using water with 0.1% formic acid as the mobile phase A and acetonitrile with 0.1% formic acid as the mobile phase B. The LC flow rate was set at 0.30 mL/min. The LC gradient increased from 5% mobile phase B to 95% mobile phase B in 10 minutes, held at 95% B for 2 minutes, returned to 5% B in 1 minute, and then held at 5% B for 6 minutes. […] Selected reaction monitoring (SRM) mode was used to acquire the m/z 353 and m/z 359 fragmental peaks. The SRM peak area ratio (COMPOUND I/COMPOUND I-d6) related to the amount of spiked COMPOUND I-d6 was used for the quantification of COMPOUND I and Fe(COMPOUND I)3 in the samples. The same column, gradient and flow rate were used for detection of Fe(COMPOUND I)3 which was detected using an Agilent 1100 HPLC and Orbitrap XL (Thermo) mass spectrometer employing a Thermo IonMax ESI interface. The Fe(COMPOUND I)3 eluted around 11.5 minutes with these conditions. A 10:1 flow split was used for the eluent flow rate of 0.3 mL/min, so that approximately 0.030 mL/min was introduced into the ESI after the split. […]
# For this reason, Raji Burkitt's lymphoma cells were selected for study of the cellular pharmacology of COMPOUND I. The intracellular accumulation of COMPOUND I in the Raji cells was quantified by liquid chromatography tandem mass spectroscopy (LC-MS/MS). […]
# [2] = tested on: phosphorylated ATM, γH2AX, cleaved PARP in Raji cells; test: Western blot of phospho-ATM, γH2AX and cleaved PARP; type: cell-based, human; settings: 0.5 μM
# Description: (§1) The structure of COMPOUND I is similar to drugs that bind to quadruplex structures in DNA which results in strand breaks; this led to the investigation of whether COMPOUND I caused damage to DNA. The parental Raji cells were treated with 0.5 μM COMPOUND I for increasing periods of time and induction of DNA damage was assessed by accumulation of the phosphorylated forms of ATM and γH2AX measured by Western blot analysis. […] Raji cells have very small nuclei making it difficult to quantify the formation of γH2AX foci, so the human ovarian carcinoma cell line CAOV3 was used for this purpose. […] Evidence of DNA damage was further strengthened by the results of the neutral comet assay which mainly detects DNA double strand breaks (FIG. 2D).
# [3] = tested on: phospho-ATM, phospho-γH2AX, PARP cleavage in Raji/COMPOUND IR cells; test: as above; type: cell-based, human; settings: 0.5 μM, 24 h
# Description: Only when the Raji/COMPOUND IR cells were treated with at least 3 times as much COMPOUND I did the intracellular content of Fe(COMPOUND I)3 finally reach a level similar to that in the sensitive cells (FIG. 4D).
# [4] = patients with solid tumors, up to maximum tolerated dose; cited from earlier work
# [5] = tested on: DNA double strand breaks in CAOV3 cells; test: Neutral comet assay; type: cell-based, human
# Description: Comet assay kits were purchased from Trevigen (Gaithersburg, Md.) and neutral comet assay was performed according to the manufacturer's instructions. Images were collected with a Keyence Fluorescent Microscope (Keyence America, Itasca, Ill.) and quantitated with OpenComet software.
# as §1
smiles,measurement,setting,value
"Cc1[nH]c2ccc(F)cc2c1-c1nc2c3cccnc3c3ncccc3c2[nH]1 [COMPOUND I, 2-(5-fluoro-2-methyl-1H-indol-3-yl)-1H-imidazo[4,5-f][1,10]phenanthroline]",time at which cellular content approaches steady-state,"[1]; Raji cells, FIG. 6A",~6 h
same,Rate of efflux over first 2 hours,"[1]; Raji cells, mean ± SEM, n = 6",−0.19 ± 0.025 log fmole/10^7 cells/h
same,intracellular Zn chelate,[1]; cells exposed to COMPOUND I,a Zn chelate was not detectable
same,cleavage of PARP,[2]; time course,detected starting at 8 h
same,phosphorylated ATM and γH2AX accumulation,[2]; up to 24 h,clear increase in phosphorylated ATM and γH2AX starting at 6 h
same,"phospho-ATM, phospho-γH2AX, PARP cleavage",[3],"no increase in phospho-ATM or phospho-γH2AX, and no detectable PARP cleavage"
same,myelosuppression,[4],did not produce myelosuppression; also recorded: does not produce myelosuppression
same,tail DNA vs DMSO,"[5]; 0.5 μM, 6 h",no increase in tail DNA
same,DNA in comet tails,[5]; 6 h treatment then 18 h drug free media (pulse-chase),significantly more DNA in the comet tails
